# In patent publication US9657307B2, “Herbicide resistance gene and use thereof” (HANGZHOU RUIFENG BIOTECHNOLOGY LIMITED INC., priority 2010, dated 2017):
# What was measured:
# [1] = tested on: transformation line N-Z1-At6; assay: Herbicide and herbicide mixture resistance of transformation line N-Z1-At6; format: in vivo, Arabidopsis thaliana; conditions: sprayed during the 4th-6th leaf stage
# Description: The resistance capability of N-Z1-At6 to other herbicides was further tested. Atrazine (90% water dispersible granule, Syngenta), Dicamba (48% aqueous formulation, Syngenta), flumiclorac-pentyl (10% emulsifiable concentrate, Sumitomo Chemical Corporation), bentazon, penoxsulam, bensulfuron and tribenuron are respectively sprayed during the 4th-6th leaf stage.
# The transformation line N-Z1-At6 was further tested for the resistance to herbicide mixture.
# Cynodon dactylon = assay: Herbicide spray resistance determination of Cynodon dactylon; format: in vivo; conditions: observed after 10 days
# Description: (§1) Cynodon dactylon is a common weed as well as a turfgrass.
# [2] = tested on: control weeds including green bristlegrass, wild oats, Amaranthus retroflexus, humulus, purslane, Monochoria vaginalis, piemarker and nutgrass galingale herb; assay: Herbicide spray on control weeds; format: in vivo; conditions: observed after 10 days
# Description: as §1
# [3] = tested on: transgenic rice strains obtained by pCam1300-N-Z1 vector transformation; assay: Herbicide resistance of transgenic rice, pCam1300-N-Z1 vector; format: in vivo; conditions: after 10 days; for transgenic strains with slow growth / transgenic strains without any observable growth inhibition: of 10 strains; for death rate of transgenic strains: seedlings about 10 cm, 10 strains
# Description: The method for obtaining transgenic rice was implemented using existing technology (Lu Xiongbin, Gong zuxun, 1998, Life Science, 10: 125-131; Liu fan et al., 2003, Molecular Plant Breeding, 1:108-115). Ripe and plump “Xiushui 134” seeds were selected and deshelled, and the calli were induced and produced which would be used as transformation material. Agrobacterium containing target gene vectors pCam1300-N-Z1 and pCam1300-N-Z2 was taken and streaked onto a plate, and single colony was selected and inoculated to prepare Agrobacterium for transformation. The calli to be transformed were placed into Agrobacterium liquid (containing acetosyringone) with proper concentration, allowing the Agrobacterium to be conjugated to the surface of the calli, and then the calli were transferred to a coculture medium and cocultured for 2-3 days. The transformed calli were rinsed with aseptic water and transferred to a selective medium containing appropriate hygromycin, and cultured for screening for two months (subcultured one time during the period). The calli after being screened with good viability were transferred to a pre-differentiation medium and cultured for about 20 days, and then the pre-differentiated calli were transferred to a differential medium and irradiated with light for 14 hours for differentiation and sprouting. After 2-3 weeks, the regenerated plants having resistance were transferred to a rooting medium containing nicosulfuron (0.1 mg/L) for strengthening the seedling and growing roots, and then the regenerated plants were rinsed to remove agar and transferred into a greenhouse to be used as identification materials.
# (§2) 10 different transgenic rice strains obtained by pCam1300-N-Z1 vector transformation and non-transgenic strains of the same variety “XiuShui 134” were selected and planted in a greenhouse (at a temperature of 15° C.-25° C.), and nicosulfuron (Yu Nongle, zhejiang Gold-Ox pesticides LTD) was sprayed at 6 mg/square meter when the seedlings have a height of about 10 cm.
# (§3) 10 different transgenic rice strains obtained by pCam1300-N-Z1 vector transformation and non-transgenic strains of the same variety “XiuShui 134” were selected and planted in a greenhouse (at a temperature of 15° C.-25° C.), and mesotrione (10% mesotrione suspension, Syngenta) was sprayed at 15 mg/square meter when the seedlings have a height of about 10 cm.
# [4] = tested on: non-transgenic strains of the same variety "XiuShui 134"; assay: Herbicide spray on non-transgenic rice; format: in vivo; conditions: after 10 days
# Procedure: as §2, §3
# 10 different transgenic rice strains obtained by pCam1300-N-Z2 vector transformation and non-transgenic strains of the same variety “XiuShui 134” were selected and planted in the greenhouse (at a temperature of 15° C.-25° C.), and nicosulfuron was sprayed at 6 mg/square meter when the seedlings have a height of about 10 cm.
# 10 different transgenic rice strains obtained by pCam1300-N-Z2 vector transformation and non-transgenic strains of the same variety “XiuShui 134” were selected and planted in the greenhouse (at a temperature of 15° C.-25° C.), and mesotrione was sprayed at 15 mg/square meter when the seedlings have a height of about 10 cm.
# [5] = tested on: transgenic rice strains obtained by pCam1300-N-Z2 vector transformation; assay: Herbicide resistance of transgenic rice, pCam1300-N-Z2 vector; format: in vivo; conditions: after 10 days, 10 strains
# Description: The method for obtaining transgenic rice was implemented using existing technology (Lu Xiongbin, Gong zuxun, 1998, Life Science, 10: 125-131; Liu fan et al., 2003, Molecular Plant Breeding, 1:108-115). Ripe and plump “Xiushui 134” seeds were selected and deshelled, and the calli were induced and produced which would be used as transformation material. Agrobacterium containing target gene vectors pCam1300-N-Z1 and pCam1300-N-Z2 was taken and streaked onto a plate, and single colony was selected and inoculated to prepare Agrobacterium for transformation. The calli to be transformed were placed into Agrobacterium liquid (containing acetosyringone) with proper concentration, allowing the Agrobacterium to be conjugated to the surface of the calli, and then the calli were transferred to a coculture medium and cocultured for 2-3 days. The transformed calli were rinsed with aseptic water and transferred to a selective medium containing appropriate hygromycin, and cultured for screening for two months (subcultured one time during the period). The calli after being screened with good viability were transferred to a pre-differentiation medium and cultured for about 20 days, and then the pre-differentiated calli were transferred to a differential medium and irradiated with light for 14 hours for differentiation and sprouting. […]
# [6] = tested on: transgenic Arabidopsis thaliana transformation lines (vector pCambia1300-35S/G10-35S/N-Z1); assay: Herbicide resistance of transgenic Arabidopsis thaliana, pCambia1300-35S/G10-35S/N-Z1; format: in vivo; conditions: 10 days after spraying
# Description: A total of 35 individual transformation lines were obtained using vector pCambia1300-35S/G10-35S/N-Z1. The T1 generation seedlings (obtained after the germination of T0 generation seeds) were sprayed with glyphosate diluted at 1:200 (41% aqueous solution of glyphosate isopropylamine salt, Xin'an chemical company) to remove the isolated plants without introduction of glyphosate-resistant gene. The survived plants were subjected to herbicide resistance test after growing to 4th-6th leaf stages.
# (§4) Nicosulfuron resistance test: 10 plants for each line were sprayed with nicosulfuron (the dose is equal to 6 mg/square meter, the effective spraying concentration was 80 mg/L, and the product was Yu Nongle, Zhejiang Gold-Ox pesticides LTD). Non-transgenic recipient parent Arabidopsis thaliana was used as negative control. Their nicosulfuron resistance levels were evaluated 10 days after spraying nicosulfuron. […] All of the non-transgenic recipient parent Arabidopsis thaliana died.
# (§5) Mesotrione resistance test: 10 plants for each line were sprayed with mesotrione (the dose is equal to 15 mg/square meter, the effective spraying concentration was 200 mg/L, and the product was 10% mesotrione suspension, Syngenta). Non-transgenic recipient parent Arabidopsis thaliana was used as negative control. Their mesotrione resistant levels were evaluated 10 days after spraying mesotrione. […] All of the non-transgenic recipient parent Arabidopsis thaliana died.
# (§6) 2,4-D resistance test: 10 plants for each line were sprayed with 2,4-D (the dose was equal to 150 mg/square meter, the spraying concentration was 1.4 g/L, and the product was soluble powder of […], Haiyan boda fine chemical Co., Ltd). Non-transgenic recipient parent Arabidopsis thaliana was used as negative control. […] All of the non-transgenic recipient parent Arabidopsis thaliana died.
# [7] = tested on: Non-transgenic recipient parent Arabidopsis thaliana; assay: Herbicide spray on non-transgenic Arabidopsis thaliana; format: in vivo; conditions: 10 days after spraying
# Procedure: as §4, §5, §6
# [8] = tested on: untransformed Arabidopsis thaliana seeds; assay: Germination and growth on glyphosate medium; format: in vivo; conditions: growth medium containing 0.5 mM glyphosate
# Procedure: The seeds obtained from Arabidopsis thaliana infected by Agrobacterium were allowed to germinate and grow in Arabidopsis thaliana growth medium containing 0.5 mM glyphosate. […] However, the seeds that introduced with T-DNA can grow and develop, followed by flowering and harvesting seeds. A total of 35 individual glyphosate-resistant seedlings (T0 generation) were obtained, and the seeds thereof were harvested.
# [9] = mesotrione 15 mg/square meter (200 mg/L)
# [10] = nicosulfuron 6 mg/square meter (80 mg/L), of 35 lines
structure (smiles),measurement,setting,value
CC(C)N1C(=O)c2ccccc2NS1(=O)=O [bentazon],resistance level of N-Z1-At6 compared with non-transgenic parental plants,[1],obviously improved
COc1cnc(OC)n2nc(NS(=O)(=O)c3c(OCC(F)F)cccc3C(F)(F)F)nc12 [penoxsulam],resistance level of N-Z1-At6 compared with non-transgenic parental plants,[1],obviously improved
CS(=O)(=O)c1ccc(C(=O)C2C(=O)CCCC2=O)c([N+](=O)[O-])c1 [mesotrione],death of Cynodon dactylon,Cynodon dactylon; mesotrione 1000 mg/L sprayed,no death
same,death of control weeds,[2]; mesotrione 1000 mg/L sprayed,died due to the occurrence of whitening
same,transgenic strains with slow growth,[3]; mesotrione 15 mg/square meter,7 strains
same,transgenic strains without any observable growth inhibition,[3]; mesotrione 15 mg/square meter,3 strains
same,death rate of transgenic strains,[3]; mesotrione 15 mg/square meter,0%
same,death of non-transgenic strains,[4]; mesotrione 15 mg/square meter,died
same,death of transgenic strains (N-Z2),[5]; mesotrione 15 mg/square meter,died
same,killed,[6]; [9],11 plants
same,"whitening at the early stage, most recovered later",[6]; [9],18 plants
same,transformation lines with no obvious herbicide damage,"[6]; mesotrione 15 mg/square meter (200 mg/L), of 35 lines",6 lines
same,death of non-transgenic recipient parent,[7]; [9],died
COc1cc(OC)nc(NC(=O)NS(=O)(=O)Cc2ccccc2C(=O)O)n1 [bensulfuron],resistance level of N-Z1-At6 compared with non-transgenic parental plants,[1],obviously improved
O=C(O)CNCP(=O)(O)O [glyphosate],growth of untransformed seeds after germination,[8],yellowed and died
CCNc1nc(Cl)nc(NC(C)C)n1 [Atrazine],resistance level of N-Z1-At6 compared with non-transgenic parental plants,[1],obviously improved
COc1nc(C)nc(N(C)C(=O)NS(=O)(=O)c2ccccc2C(=O)O)n1 [tribenuron],resistance level of N-Z1-At6 compared with non-transgenic parental plants,[1],obviously improved
COc1c(Cl)ccc(Cl)c1C(=O)O [Dicamba],resistance level of N-Z1-At6 compared with non-transgenic parental plants,[1],obviously improved
COc1cc(OC)nc(NC(=O)NS(=O)(=O)c2ncccc2C(=O)N(C)C)n1 [nicosulfuron],death of Cynodon dactylon,Cynodon dactylon; nicosulfuron 400 mg/L sprayed,no death
same,death of control weeds,[2]; nicosulfuron 400 mg/L sprayed,killed
same,transgenic strains with slow growth,[3]; nicosulfuron 6 mg/square meter,2 strains
same,transgenic strains without any observable growth inhibition,[3]; nicosulfuron 6 mg/square meter,8 strains
same,death rate of transgenic strains,[3]; nicosulfuron 6 mg/square meter,0%
same,death of non-transgenic strains,[4]; nicosulfuron 6 mg/square meter,died
same,death of transgenic strains (N-Z2),[5]; nicosulfuron 6 mg/square meter,died
same,lines killed,[6]; [10],6 lines
same,lines with different degrees of growth inhibition,[6]; [10],8 lines
same,transformation lines with no obvious herbicide damage,[6]; [10],21 lines
same,death of non-transgenic recipient parent,[7]; nicosulfuron 6 mg/square meter (80 mg/L),died
CCCCCOC(=O)COc1cc(N2C(=O)C3=C(CCCC3)C2=O)c(F)cc1Cl [flumiclorac-pentyl],resistance level of N-Z1-At6 compared with non-transgenic parental plants,[1],obviously improved
